# Patent US20260035372A1, “METHOD FOR PREPARING (R)-KETOROLAC AND USE THEREOF” (Yinuoke Medicine Science and Technology Co LTD, priority 2022, published 2026)
# Legend:
# [1] = test system: colon cancer model Colon-26; test: (R)-ketorolac combined with gemcitabine on colon cancer model Colon-26, tumor growth curve; assay type: in vivo; settings: Colon-26 s.c. in male BALB/C mice; (R)-ketorolac alone by gavage 0.1 mg/d for 12 d
# Procedure: (§1) The colon cancer tumor model was established by using adult male BALB/C mice which were subcutaneously inoculated 106 well-growing Colon-26 tumor cells. Starting from the 7th day after tumor inoculation, the two largest diameters of the tumors were measured with vernier calipers twice a week, and the tumor size was expressed as area (square millimeters). After the tumors grew to a certain size, the mice were randomly divided into 4 groups, including a control group (n=5) and 3 treatment groups: the (R)-ketorolac monotherapy group (n=5) was administered by gavage, 0.1 mg/d, for a total of 12 d; the gemcitabine monotherapy group (n=4) was administered intraperitoneally, 2 mg/1 time every 3 d, for a total of 4 times; and the combined therapy group (n=5) adopted the two drugs in combination, and the dosage and frequency of administration were the same as those in the monotherapy group.
# After starting the treatment, the tumors were measured twice a week, and a tumor growth curve was made based on average tumor area=SEM.
# [2] = test system: aortic dissection and aortic aneurysm; settings: oral administration; from CN202111115983.X; cited from earlier work
# [3] = stronger than (R)-ketorolac; cited from earlier work
# [4] = stronger than (R)-ketorolac; cited from earlier work; remark: listed apart in the source
# [5] = test system: colon cancer model Colon-26; settings: Colon-26 in BALB/C mice; cyclophosphamide i.p. 3 mg every 6 d x3, with or without (R)-ketorolac 0.1 mg/d x18
# Procedure: as §1
# The colon cancer tumor model was established as described in the above.
# After starting the treatment, the tumors were measured twice a week, and a tumor growth curve was made based on average tumor area±SEM.
smiles,measurement,setting,value
O=C(c1ccccc1)c1ccc2n1CC[C@H]2C(=O)O [(R)-ketorolac],"effect on colon cancer tumor growth (tumor area growth curve, FIG. 16)",[1],no effect
same,"effect on aortic dilation, incidence and mortality of aortic dissection and aortic aneurysm",[2],inhibit pathological dilation of the aorta and reduce the incidence and mortality of aortic dissection and aortic aneurysm
O=C(c1ccccc1)c1ccc2n1CC[C@@H]2C(=O)O [(S)-ketorolac],analgesic effect relative to (R)-ketorolac,[3],230 times
same,anti-inflammatory effect relative to (R)-ketorolac,[4],60 times
O=P1(N(CCCl)CCCl)NCCCO1 (stereo not drawn) [cyclophosphamide],cure rate,[5],16.7%
same,mice completely cured,[5],1 out of 6
